The values below come from patent US20240262803A1, “COMPOUNDS, COMPOSITIONS AND METHODS OF TREATING DISORDERS” (Chungdu Anticancer Bioscience Ltd, priority 2021, published 2024).

Holding throughout (format): cell-based
The test system of assay [1] is gastric cancer cell line NCI-N87. The experiment in a line: Minimal effective concentration that elicits polyploidy, NCI-N87. The conditions noted are these: Homo sapiens, read-out: MECP: Minimal effective concentration that elicits polyploidy.
Assay [2] deals with cervical cancer cell line Hela. The assay can be described thus: MTT assay of cellular proliferation, Hela. The conditions noted are these: Homo sapiens, read-out: EC50: Concentration that inhibits 50% of proliferation. The essentials:
(§1)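 EC50 values come from optical density at 570 nm of solubilized MTT formazan, added for 3˜4 h after compound exposure. Cells in DMEM with 5% FBS were treated at 1 nM to 10 μM once 20˜30% confluent.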
On the technique in general: Tetrazolium assays rely on reduction of a dye to a coloured formazan, in cell work by metabolically active cells.

Assay [3] concerns gastric cancer cell line NCI-N87. The assay can be described thus: MTT assay of cellular proliferation, NCI-N87. The conditions noted are these: Homo sapiens, read-out: EC50: Concentration that inhibits 50% of proliferation. The essentials: as §1
Assay [4] deals with lung cancer cell line NCI-H23. The experiment in a line: Minimal effective concentration that elicits polyploidy, NCI-H23. The conditions noted are these: Homo sapiens, read-out: MECP: Minimal effective concentration that elicits polyploidy.
Assay [5] relates to colon cancer cell line SW460. The assay can be described thus: MTT assay of cellular proliferation, SW460. The conditions noted are these: Homo sapiens, SW480; read-out: EC50: Concentration that inhibits 50% of proliferation. In short, it runs like this:
as §1

For assay [6], the system named is RPEMYC^H2B-GFP cells. The assay can be described thus: Mechanism-informed phenotypic screening assay (mitotic arrest, polyploidy; GE IN-Cell Analyzer 2000). Conditions: 20 nM to 20 μM, 24, 48 or 72 hours, read-out: Mitotic Arrest (≥5%).
Assay [7] has as its system colon cancer cell line HCT116. The assay can be described thus: MTT assay of cellular proliferation, HCT116. The conditions noted are these: Homo sapiens, HCT-116, read-out: EC50: Concentration that inhibits 50% of proliferation. In short, it runs like this: as §1
Assay [8] concerns liver cancer cell line T2 HCC. The experiment in a line: MTT assay of cellular proliferation, T2 HCC. The conditions noted are these: Mus musculus, read-out: EC50: Concentration that inhibits 50% of proliferation. The essentials:
as §1

Another assay deals with SW480. The experiment in a line: Minimal effective concentration that elicits polyploidy, SW480. The conditions noted are these: Homo sapiens, read-out: MECP: Minimal effective concentration that elicits polyploidy.
In assay [9] the test system is liver cancer cell line T2 HCC. The assay can be described thus: Minimal effective concentration that elicits polyploidy, T2 HCC. Conditions: Mus musculus, read-out: MECP: Minimal effective concentration that elicits polyploidy.
For assay [10], the system named is cervical cancer cell line Hela. The experiment in a line: Minimal effective concentration that elicits polyploidy, Hela. The conditions noted are these: Homo sapiens, read-out: MECP: Minimal effective concentration that elicits polyploidy.
Assay [11] relates to lung cancer cell line A549. The assay can be described thus: Minimal effective concentration that elicits polyploidy, A549. Conditions: Homo sapiens, read-out: MECP: Minimal effective concentration that elicits polyploidy.
Assay [12] deals with RPEMYC^H2B-GFP cells. The experiment in a line: Mechanism-informed phenotypic screening assay (mitotic arrest, polyploidy; GE IN-Cell Analyzer 2000). Conditions: 20 nM to 20 μM, 24, 48 or 72 hours, read-out: Min. Effective conc. for polyploidy (≥5%). The essentials: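 RPEMYC^H2B-GFP cells expressing Histone 2B-EGFP were treated with compounds at 20 nM to 20 μM. Mitotic arrest and DNA content were imaged at 24, 48 or 72 h. Minimal effective concentrations eliciting polyploidy are given as letter bins.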

Assay [13] has as its system colon cancer cell line HCT116. The assay can be described thus: Minimal effective concentration that elicits polyploidy, HCT116. Conditions: Homo sapiens, HCT-116, read-out: MECP: Minimal effective concentration that elicits polyploidy.
Assay [14] relates to lung cancer cell line A549. The experiment in a line: MTT assay of cellular proliferation, A549. The conditions noted are these: Homo sapiens, read-out: EC50: Concentration that inhibits 50% of proliferation. The essentials: as §1
The test system of assay [15] is breast cancer cell line MDA-MB-231. The experiment in a line: MTT assay of cellular proliferation, MDA-MB-231. The conditions noted are these: Homo sapiens, read-out: EC50: Concentration that inhibits 50% of proliferation. The essentials:
as §1

For assay [16] the test system is unchanged. The assay can be described thus: Minimal effective concentration that elicits polyploidy, MDA-MB-231. Conditions: Homo sapiens, read-out: MECP: Minimal effective concentration that elicits polyploidy.
The subject of assay [17] is lung cancer cell line NCI-H23. The assay can be described thus: MTT assay of cellular proliferation, NCI-H23. The conditions noted are these: Homo sapiens, read-out: EC50: Concentration that inhibits 50% of proliferation. The essentials: as §1

SMILES strings stand for the structures. Where two headings read alike, the source gives them in different places.

Take `CNC(=O)c1cc(Oc2ncccc2-c2ccnc(C)c2)cc(OC(F)(F)F)c1` [Compound 39, N-methyl-3-((2′-methyl-[3,4′-bipyridin]-2-yl)oxy)-5-(trifluoromethoxy)benzamide]: the minimal effective concentration was 0.001 to 1 µM in [1]; 0.001 to 1 µM in assay [4]; 1 µM with RPEMYC^H2B-GFP cells [6]; 0.001 to 1 µM with SW480; 0.001 to 1 µM in [9]; 0.001 to 1 µM in [10]. The minimal effective concentration in assay [11] is 0.001 to 1 µM; with RPEMYC^H2B-GFP cells [12], 1 µM; in assay [13], 0.001 to 1 µM; in [16], 0.001 to 1 µM. Moreover, the EC50 in assay [2], in assay [3], in assay [5], in [7], in [8] and in assay [14] was 1 to 1000 nM throughout. The EC50 in [15] and in assay [17] was 1 to 1000 nM each time.
With `CNC(=O)c1cc(OC)cc(Oc2ncccc2-c2ccnc(C)c2)c1` [Compound 36, 3-methoxy-N-methyl-5-((2′-methyl-[3,4′-bipyridin]-2-yl)oxy)benzamide], the minimal effective concentration was 0.001 to 1 µM in assay [1]; 0.001 to 1 µM in assay [4]; 1 µM with RPEMYC^H2B-GFP cells [6]; 0.001 to 1 µM in the assay with SW480; 0.001 to 1 µM in assay [9]; 0.001 to 1 µM in assay [10]. In addition, the minimal effective concentration in [11] is 0.001 to 1 µM; with RPEMYC^H2B-GFP cells [12] it was 1 µM; in [13] it was 0.001 to 1 µM; in assay [16] it was 0.001 to 1 µM. Moreover, the EC50 in assay [2], in assay [3], in assay [5], in assay [7], in [8] and in assay [14] was 1 to 1000 nM each time. The EC50 in assay [15] and in assay [17] was 1 to 1000 nM throughout.
`COc1cc(Oc2ncccc2-c2ccncc2)cc(C(=O)O)c1` [Compound 3, 3-([3,4′-bipyridin]-2-yloxy)-5-methoxybenzoic acid]: the minimal effective concentration in assay [1] is 0.001 to 1 µM; in [4], 0.001 to 1 µM; with RPEMYC^H2B-GFP cells [6], over 30 µM; in the assay with SW480, 0.001 to 1 µM; in [9] it was 0.001 to 1 µM; in [10], 0.001 to 1 µM. Further, the minimal effective concentration was 0.001 to 1 µM in assay [11], over 30 µM with RPEMYC^H2B-GFP cells [12], 0.001 to 1 µM in [13] and 0.001 to 1 µM in assay [16]. Further, the EC50 in assay [2], in assay [3], in [5], in assay [7], in assay [8] and in assay [14] was 1 to 1000 nM each time. Besides, the EC50 in assay [15] and in assay [17] was 1 to 1000 nM each time.
Regarding `CCOc1cc(Oc2ncccc2-c2ccnc(OC)c2)cc(C(=O)NC)c1` [Compound 28, 3-ethoxy-5-((2′-methoxy-[3,4′-bipyridin]-2-yl)oxy)-N-methylbenzamide], the minimal effective concentration in assay [1] was 0.001 to 1 µM; in assay [4], 0.001 to 1 µM; in the assay with RPEMYC^H2B-GFP cells [6] it was 1 µM; in the assay on SW480 it was 0.001 to 1 µM; in [9] it was 0.001 to 1 µM; in assay [10] it was 0.001 to 1 µM. Further, the minimal effective concentration in [11] was 0.001 to 1 µM; in the assay on RPEMYC^H2B-GFP cells [12], 1 µM; in assay [13], 0.001 to 1 µM; in [16], 0.001 to 1 µM. Besides, the EC50 in assay [2], in [3], in assay [5], in assay [7], in [8] and in assay [14] was 1 to 1000 nM throughout. The EC50 in assay [15] and in [17] was 1 to 1000 nM each time.
For `COc1cc(NC(C)=O)cc(Oc2ncccc2-c2ccnc(C)c2)c1` [Compound 43, N-(3-methoxy-5-((2′-methyl-[3,4′-bipyridin]-2-yl)oxy)phenyl)acetamide], the minimal effective concentration in assay [1] is 0.001 to 1 µM; in assay [4] it was 0.001 to 1 µM; with RPEMYC^H2B-GFP cells [6], 1 µM; in the assay on SW480, 0.001 to 1 µM; in [9], 0.001 to 1 µM; in assay [10], 0.001 to 1 µM. Besides, the minimal effective concentration was 0.001 to 1 µM in [11], 1 µM with RPEMYC^H2B-GFP cells [12], 0.001 to 1 µM in assay [13] and 0.001 to 1 µM in [16]. In addition, the EC50 in assay [2], in assay [3], in assay [5], in assay [7], in [8] and in assay [14] was 1 to 1000 nM in each case. Moreover, the EC50 in [15] and in assay [17] was 1 to 1000 nM in each case.
Take `COc1cc(NC(C)=O)cc(Oc2ncccc2-c2ccncc2)c1` [Compound 13, N-(3-([3,4′-bipyridin]-2-yloxy)-5-methoxyphenyl)acetamide]: the minimal effective concentration is 0.001 to 1 µM in assay [1]; 0.001 to 1 µM in assay [4]; 1 µM in the assay on RPEMYC^H2B-GFP cells [6]; 0.001 to 1 µM in the assay with SW480; 0.001 to 1 µM in assay [9]; 0.001 to 1 µM in [10]. For the same compound, the minimal effective concentration was 0.001 to 1 µM in assay [11], 1 µM in the assay with RPEMYC^H2B-GFP cells [12], 0.001 to 1 µM in assay [13] and 0.001 to 1 µM in [16]. Further, the EC50 in assay [2], in assay [3], in assay [5], in assay [7], in [8] and in [14] was 1 to 1000 nM each time. Besides, the EC50 in assay [15] and in [17] was 1 to 1000 nM throughout.
Consider `CNC(=O)c1cc(OC)cc(Oc2ncccc2-c2ccnc(Cl)c2)c1` [Compound 45, 3-((2′-chloro-[3,4′-bipyridin]-2-yl)oxy)-5-methoxy-N-methylbenzamide], for which the minimal effective concentration was 0.001 to 1 µM in assay [1]; 0.001 to 1 µM in [4]; 1 µM in the assay with RPEMYC^H2B-GFP cells [6]; 0.001 to 1 µM in the assay on SW480; 0.001 to 1 µM in [9]; 0.001 to 1 µM in [10]. Besides, the minimal effective concentration is 0.001 to 1 µM in assay [11], 1 µM in the assay with RPEMYC^H2B-GFP cells [12], 0.001 to 1 µM in [13] and 0.001 to 1 µM in assay [16]. Besides, the EC50 in [2], in assay [3], in [5], in assay [7], in assay [8] and in [14] was 1 to 1000 nM each time. For the same compound, the EC50 in [15] and in [17] was 1 to 1000 nM each time.
As to `COc1cc(OC)cc(Oc2ncccc2-c2ccnc(C)c2)c1` [Compound 42, 2-(3,5-dimethoxyphenoxy)-2′-methyl-3,4′-bipyridine], the minimal effective concentration in assay [1] was 0.001 to 1 µM; in assay [4] it was 0.001 to 1 µM; in the assay with RPEMYC^H2B-GFP cells [6], 1 µM; with SW480 it was 0.001 to 1 µM; in assay [9], 0.001 to 1 µM; in assay [10], 0.001 to 1 µM. For the same compound, the minimal effective concentration is 0.001 to 1 µM in assay [11], 1 µM in the assay with RPEMYC^H2B-GFP cells [12], 0.001 to 1 µM in assay [13] and 0.001 to 1 µM in assay [16]. The EC50 in [2], in [3], in assay [5], in [7], in [8] and in assay [14] was 1 to 1000 nM each time. The EC50 in assay [15] and in [17] was 1 to 1000 nM in each case.
